This is an account of results in US11046687B2, “Polycyclic amide compound, preparation process and use thereof” (HEBEI GRANDIOS PHARMA CO., LTD., priority 2018, dated 2021).

Broadly, the inhibition is the drop in the measured response relative to a control, in per cent.

Assay [1] concerns human lung cancer cells (A-549). Description: MTT assay, in vitro growth inhibition, A-549 cells. The assay is classed as cell-based. The arrangement: in vitro growth inhibition rate, A549: unit not given here. The conditions noted are these: test drug concentration 4 μg/mL, 37° C., 3 days; for inhibition at 4 µg/mL: Homo sapiens, A549, 72 h, read-out: in vitro growth inhibition rate, A549. The procedure: (§1) The in vitro cytotoxicity of the compounds of the present invention was tested with reference to the experimental methods reported in the literature (Liu Yanqin et al., Organic Chemistry, 2002, 22(4), 279-282). The human oral epithelial cancer cells (KB), human lung cancer cells (A-549), and breast cancer cells (MDA) were used to test the in vitro growth inhibition rate of the compounds by MTT assay. Cells were cultured at 37° C. for 3 days under a test drug concentration of 4 μg/mL.
Background: Tetrazolium dyes change colour on reduction, which living cells bring about.

The test system of assay [2] is breast cancer cells (MDA). Description: MTT assay, in vitro growth inhibition, MDA cells. It is filed as cell-based. The arrangement: in vitro growth inhibition rate, MDA: unit not given here. The conditions noted are these: test drug concentration 4 μg/mL, 37° C., 3 days; for inhibition at 4 µg/mL: 72 h, read-out: in vitro growth inhibition rate, MDA. The procedure:
as §1

Turning to `CCN(C)C(C)CNC(=O)c1cccc2cc3ccccc3nc12` (stereo not shown) [Compound 7], the “in vitro growth inhibition rate, A549” value in assay [1] was −5.8. Besides, in assay [2], the “in vitro growth inhibition rate, MDA” value came out at 4.4.
In the case of `CCN(C)CCNC(=O)c1cn(CC)c(=O)c2cc3cccc(C)c3nc12` [Compound 90, N-[2-(N-ethylmethylamino)ethyl]-2-ethyl-6-methyl-1-oxo-1,2-dihydrobenzo[b][1,6]naphthyridine-4-carboxamide], the values for the inhibition at 4 µg/mL in assay [1] and in assay [2] were 3.5% and 6.4%, respectively.
Take `CCN(C)CCNC(=O)c1cn(-c2ccc(F)cc2)c(=O)c2cc3cccc(C)c3nc12` [Compound 86]: in assay [1], the “in vitro growth inhibition rate, A549” value came to 9.8. For the same compound, the “in vitro growth inhibition rate, MDA” value in assay [2] was determined as 14.
In the case of `CCNCC(C)NC(=O)c1cccc2cc3ccccc3nc12` (stereo not shown) [Compound 22], the “in vitro growth inhibition rate, A549” value in assay [1] came out at 3.1. In addition, the “in vitro growth inhibition rate, MDA” value in assay [2] is listed as 2.5.
As for `CN(C)CCNC(=O)c1cccc2cc3ccccc3nc12` [DACA (1), reference compound], the inhibition at 4 µg/mL in assay [1] worked out at 1.7%; in assay [2], 2%.
In the same order, the values of `Cc1cccc2nc3cccc(C(=O)NC(C)CN(C)C(C)C)c3nc12` (stereo not shown) [Compound 66, N-[1-methyl-2-(N-isopropylmethylamino)ethyl]-1-methylphenazine-9-carboxamide] are 1.2% and 1.9%.
For `CCN(CC)C(C)CNC(=O)c1cccc2cc3ccccc3nc12` (stereo not shown) [Compound 8], the “in vitro growth inhibition rate, A549” value in assay [1] is reported as −6.6. The “in vitro growth inhibition rate, MDA” value in assay [2] was −4.7.
Regarding `CNCCNC(=O)c1cn(-c2ccc(F)cc2)c(=O)c2cc3cccc(C)c3nc12` [Compound 85], the “in vitro growth inhibition rate, A549” value in assay [1] is −3.4. Besides, in assay [2], the “in vitro growth inhibition rate, MDA” value is reported as −1.8.
Take `CC(C)N(C)C(C)CNC(=O)c1cccc2cc3ccccc3nc12` (stereo not shown) [Compound 10, N-[2-(N-isopropylmethylamino)propyl]acridine-4-carboxamide]: the inhibition at 4 µg/mL in assay [1] was found to be 3.3%; in assay [2], 1.2%.
Consider `CNC(C)CNC(=O)c1cccc2cc3ccccc3nc12` (stereo not shown) [Compound 5], for which the “in vitro growth inhibition rate, A549” value in assay [1] was −11. The “in vitro growth inhibition rate, MDA” value in assay [2] was −5.1.
Consider `CCNCCNC(=O)c1cn(C)c(=O)c2cc3cccc(C)c3nc12` [Compound 87], for which the “in vitro growth inhibition rate, A549” value in assay [1] is 5. Further, the “in vitro growth inhibition rate, MDA” value in assay [2] came out at 3.9.
`CCNC(C)CNC(=O)c1cccc2cc3ccccc3nc12` (stereo not shown) [Compound 6]: in assay [1], the “in vitro growth inhibition rate, A549” value is −5. For the same compound, the “in vitro growth inhibition rate, MDA” value in assay [2] is listed as −1.5.
As for `Cc1cccc2nc3cccc(C(=O)NCC(C)N(C)C(C)C)c3nc12` (stereo not shown) [Compound 50, N-[2-(N-isopropylmethylamino)propyl]-1-methylphenazine-9-carboxamide], the values for the inhibition at 4 µg/mL in assay [1] and in assay [2] were -7.8% and -7.2%, respectively.
As to `CCN(C)CCNC(=O)c1cn(C)c(=O)c2cc3cccc(C)c3nc12` [Compound 88], the “in vitro growth inhibition rate, A549” value in assay [1] is 1.6. For the same compound, in assay [2], the “in vitro growth inhibition rate, MDA” value was determined as 1.4.
